Source: ChEMBL document CHEMBL4346677, “Compounds based on 5-(perylen-3-ylethynyl)uracil scaffold: High activity against tick-borne encephalitis virus and non-specific activity against enterovirus A” (Eur J Med Chem, 2019)
Values after ≈ are worked out from the molar mass of the structure shown. Active and inactive are the calls of the source. The calls are words filed in the database; no cut-off is given here.

Key:
[1] = Cytotoxicity against human RD cells assessed as reduction in cell viability after 24 hrs by microscopic method; assay type: cell-based
[2] = tested on: Vero; experiment: Cytotoxicity against African green monkey Vero cells assessed as formation of syncytium-like patterns of cells at 50 uM after 7 days by microscopic method; assay type: cell-based; details: chlorocebus sabaeus, 168 h
[3] = Solubility of compound in 15% DMSO by spectrophotometric analysis; assay type: physicochemical
[4] = Cytotoxicity against PEK cells assessed as formation of syncytium-like patterns of cells at 50 uM after 7 days by microscopic method; assay type: cell-based, Sus scrofa; details: pig, 168 h
[5] = tested on: Echovirus; experiment: Antiviral activity against Echovirus 30 isolate 48461; assay type: functional, organism-based
[6] = Cytotoxicity against African green monkey Vero cells assessed as reduction in cell viability after 7 days by microscopic method; assay type: cell-based; details: chlorocebus sabaeus
[7] = Cytotoxicity against PEK cells assessed as reduction in cell viability after 7 days by microscopic method; assay type: cell-based, Sus scrofa; details: pig
[8] = Cytotoxicity against PEK cells assessed as reduction in cell viability after 24 hrs by microscopic method; assay type: cell-based, Sus scrofa; details: pig
[9] = tested on: Poliovirus 1; experiment: Antiviral activity against poliovirus type 1 sabin 1; assay type: functional, organism-based
[10] = tested on: Tick-borne encephalitis virus; experiment: Antiviral activity against TBEV Absettarov infected in PEK cells assessed as plaque reduction preincubated for 1 hr followed by overlaying with 1.26% methylcellulose and measured after 6 days by gentian violet staining-based assay; assay type: functional, organism-based
[11] = tested on: RD; experiment: Cytotoxicity against human RD cells assessed as formation of syncytium-like patterns of cells at 50 uM after 7 days by microscopic method; assay type: cell-based; details: 168 h
[12] = tested on: Enterovirus A71; experiment: Antiviral activity against Enterovirus A71 isolate 46973 infected in human RD cells assessed as reduction in virus induced cytopathic effect preincubated with viral suspension for 1 hr followed by cell addition measured after 5 to 7 days; assay type: functional, organism-based
[13] = Cytotoxicity against human RD cells assessed as reduction in cell viability after 7 days by microscopic method; assay type: cell-based
[14] = Cytotoxicity against African green monkey Vero cells assessed as reduction in cell viability after 24 hrs by microscopic method; assay type: cell-based; details: chlorocebus sabaeus
[15] = Cytotoxicity against PEK cells assessed as reduction in metabolic activity at >20 uM after 24 hrs by CellTiter-Blue assay; assay type: ADME, cell-based, Sus scrofa; details: pig
[16] = tested on: RD; experiment: Cytotoxicity against human RD cells assessed as reduction in metabolic activity at >20 uM after 24 hrs by CellTiter-Blue assay; assay type: ADME, cell-based
[17] = tested on: Vero; experiment: Cytotoxicity against African green monkey Vero cells assessed as reduction in metabolic activity at >20 uM after 24 hrs by CellTiter-Blue assay; assay type: ADME, cell-based; details: chlorocebus sabaeus
[18] = tested on: Influenza A virus; experiment: Antiviral activity against influenza A virus H1N1 infected in dog MDCK cells assessed as plaque reduction preincubated for 10 mins inocula removed after 1 hr followed by overlaying with 0.8% agarose and measured after 1 to 2 days by crystal violet staining based assay; assay type: functional, organism-based
[19] = tested on: Sindbis virus; experiment: Antiviral activity against Sindbis virus infected in African green monkey Vero cells assessed as plaque reduction preincubated for 10 mins inocula removed after 1 hr followed by overlaying with 2% methylcellulose and measured after 1 to 2 days by crystal violet staining based assay; assay type: functional, organism-based
[20] = Selectivity index, ratio of CC50 for MDCK cells to EC50 for H3N2 infected in MDCK cells; assay type: toxicity, cell-based; details: dog, read-out: Ratio CC50/EC50
[21] = Selectivity index, ratio of CC50 for African green monkey Vero cells to EC50 for HSV-1 infected in Vero cells; assay type: toxicity, cell-based; details: read-out: Ratio CC50/EC50
[22] = tested on: Influenza A virus; experiment: Antiviral activity against influenza A virus H3N2 infected in dog MDCK cells assessed as plaque reduction preincubated for 10 mins inocula removed after 1 hr followed by overlaying with 0.8% agarose and measured after 1 to 2 days by crystal violet staining based assay; assay type: functional, organism-based
[23] = Selectivity index, ratio of CC50 for mouse NIH3T3 cells to EC50 for mCMV infected in NIH3T3 cells; assay type: toxicity, cell-based; details: read-out: Ratio CC50/EC50
[24] = Selectivity index, ratio of CC50 for MDCK cells to EC50 for H1N1 infected in MDCK cells; assay type: toxicity, cell-based; details: dog, read-out: Ratio CC50/EC50
[25] = tested on: Human alphaherpesvirus 1; experiment: Antiviral activity against HSV-1 infected in African green monkey Vero cells preincubated with virus for 5 mins; assay type: functional, organism-based; details: Human alphaherpesvirus 1, Vero
[26] = tested on: Murid betaherpesvirus 1; experiment: Antiviral activity against mCMV infected in mouse NIH3T3 cells assessed as reduction in virus induced cytopathogenicity; assay type: functional, organism-based; details: Murid betaherpesvirus 1, NIH3T3
[27] = Selectivity index, ratio of CC50 for African green monkey Vero cells to EC50 for Sindbis infected in Vero cells; assay type: toxicity, cell-based; details: read-out: Ratio CC50/EC50
[28] = tested on: Human alphaherpesvirus 2; experiment: Antiviral activity against HSV-2 infected in African green monkey Vero cells assessed as plaque reduction preincubated for 10 mins inocula removed after 1 hr followed by overlaying with 2% methylcellulose and measured after 1 to 2 days by crystal violet staining based assay; assay type: functional, organism-based; details: Human alphaherpesvirus 2, Vero
[29] = Selectivity index, ratio of CC50 for human Huh7.5 cells to EC50 for HCV JFH1 infected in Huh7.5 cells; assay type: toxicity, cell-based; details: read-out: Ratio CC50/EC50
[30] = Selectivity index, ratio of CC50 for African green monkey Vero cells to EC50 for HSV-2 infected in Vero cells; assay type: toxicity, cell-based; details: read-out: Ratio CC50/EC50
[31] = Selectivity index, ratio of CC50 for African green monkey Vero cells to EC50 for VSV infected in Vero cells; assay type: toxicity, cell-based; details: read-out: Ratio CC50/EC50
[32] = tested on: Vesicular stomatitis virus; experiment: Antiviral activity against VSV infected in African green monkey Vero cells assessed as plaque reduction preincubated for 10 mins inocula removed after 1 hr followed by overlaying with 2% methylcellulose and measured after 1 to 2 days by crystal violet staining based assay; assay type: functional, organism-based
[33] = tested on: Hepatitis C virus; experiment: Antiviral activity against HCV JFH1 infected in human Huh7.5 cells assessed as NS3 expression by western blot analysis; assay type: functional, organism-based, Hepacivirus hominis; details: JFH1, Huh7.5
[34] = Enterovirus A, isolate 46973, RD, read-out: EC50

Row | SMILES | CC50 at 24 h [1] | Activity [2] | solubility [3] | Activity [4] | Activity [5] | CC50 at 168 h [6] | CC50 at 168 h [7] | CC50 at 24 h [8] | Activity [9] | EC50 [10] | Activity [11] | EC50 [12] | CC50 at 168 h [13] | CC50 at 24 h [14] | also measured
1 | CC(C)(C)C(=O)OCn1c(=O)c(C#Cc2ccc3c4cccc5cccc(c6cccc2c63)c54)cn(CC(=O)N(CCO)CCO)c1=O | 19 µM | Toxic | 1000 µM (≈ 648 µg/mL) | Toxic | inactive | > 50 µM | > 50 µM | > 50 µM | inactive | 0.00044 µM | Toxic | Not Active | 14 µM | 38 µM | 
2 | CC(C)(C)C(=O)OCn1c(=O)c(C#Cc2ccc3c4cccc5cccc(c6cccc2c63)c54)cn(CC(=O)NCCCCO)c1=O | 19 µM | Toxic | 5.3 µM (≈ 3.34 µg/mL) | Toxic | inactive | > 50 µM | > 50 µM | > 50 µM | inactive | 0.00069 µM | Toxic | Not Active | 38 µM | > 50 µM | 
3 | O=C(Cn1cc(C#Cc2ccc3c4cccc5cccc(c6cccc2c63)c54)c(=O)[nH]c1=O)NCCCCO | 76 µM | Toxic |  | Toxic | inactive | > 50 µM | > 50 µM | > 50 µM | inactive | 0.02 µM | Toxic |  | 81 µM | > 50 µM | Activity [15]: Non-Toxic; Activity [16]: Toxic; Activity [17]: Non-Toxic; EC50 [12, 34]: 56 µM
4 | CC(C)(CO)[C@@H](O)CNC(=O)Cn1cc(C#Cc2ccc3c4cccc5cccc(c6cccc2c63)c54)c(=O)[nH]c1=O | 76 µM | Toxic |  | Toxic | inactive | > 50 µM | > 50 µM | > 50 µM | inactive | 0.019 µM | Toxic |  | 76 µM | 38 µM | Activity [15]: Non-Toxic; Activity [16]: Toxic; Activity [17]: Non-Toxic; EC50 [12, 34]: 108 µM
5 | O=c1[nH]c(=O)n([C@H]2C[C@H](O)[C@@H](CO)O2)cc1C#Cc1ccc2c3cccc4cccc(c5cccc1c52)c43 |  |  |  |  |  |  |  |  |  |  |  |  |  |  | EC50 [18]: 0.002 to 0.283 µM; EC50 [19]: 0.002 to 0.283 µM; selectivity ratio [20]: > 3000; selectivity ratio [21]: > 3000; EC50 [22]: 0.002 to 0.283 µM; selectivity ratio [23]: > 3000; selectivity ratio [24]: > 3000; EC50 [25]: 0.048 µM; EC50 [26]: 0.002 to 0.283 µM; selectivity ratio [27]: > 3000; EC50 [28]: 0.002 to 0.283 µM; selectivity ratio [29]: > 3000; selectivity ratio [30]: > 3000; selectivity ratio [31]: > 3000; EC50 [32]: 0.002 to 0.283 µM; EC50 [33]: 0.002 to 0.283 µM
6 | O=c1[nH]c(=O)n([C@@H]2O[C@H](CO)[C@@H](O)[C@@H]2O)cc1C#Cc1ccc2c3cccc4cccc(c5cccc1c52)c43 |  | Toxic |  | Toxic | inactive |  | > 50 µM | > 50 µM | inactive | 0.021 µM | Toxic |  |  |  | EC50 [18]: 0.002 to 0.283 µM; EC50 [19]: 0.002 to 0.283 µM; selectivity ratio [20]: > 3000; selectivity ratio [21]: > 3000; EC50 [22]: 0.002 to 0.283 µM; selectivity ratio [23]: > 3000; selectivity ratio [24]: > 3000; EC50 [25]: 0.002 to 0.283 µM; EC50 [26]: 0.002 to 0.283 µM; selectivity ratio [27]: > 3000; EC50 [28]: 0.002 to 0.283 µM; selectivity ratio [29]: > 3000; selectivity ratio [30]: > 3000; selectivity ratio [31]: > 3000; EC50 [32]: 0.002 to 0.283 µM; EC50 [33]: 0.002 to 0.283 µM
7 | CC(C)(C)C(=O)OCn1c(=O)c(C#Cc2ccc3c4cccc5cccc(c6cccc2c63)c54)cn(CC(=O)NCCCO)c1=O | 19 µM | Toxic | 49 µM (≈ 30.2 µg/mL) | Toxic | inactive | > 50 µM | > 50 µM | > 50 µM | inactive | 0.00043 µM | Toxic | Not Active | 10 µM | 38 µM | 
